Assays:
[1] = tested on: rhythmic bladder contractions induced by substance P; assay: Inhibitory effect on the rhythmic bladder contractions induced by substance P in anesthetized rats; type: in vivo, rat; conditions: time during which frequency of rhythmic contraction was completely inhibited, 0.25 mg/kg of the compound, substance P infusion
Method in brief: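 Value is duration (min) of complete inhibition of bladder contractions, ranked A/B/C at 20 and 10 min cut-offs. Intravenous dosing (0.5% Tween 80 saline) in female SD rats under urethane, bladder saline-filled and contractions maintained by substance P infusion, 0.33 μg/kg/min.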

[2] = tested on: isolated rabbit urinary bladder; assay: Relaxation effect on potassium-induced contraction of isolated rabbit urinary bladder; type: cell-based; conditions: Oryctolagus cuniculus; 50% relaxation concentration; high-K+ (30 mM) pre-contracted rabbit bladder strips; relaxation as percentage of the maximum produced by 0.1 mM papaverine; read-out: EC50 value range
Procedure: Relaxation effect on potassium-induced contraction of isolated rabbit urinary bladder
Urinary bladder was isolated from Male NZW rabbits (2.0-3.5 kg) and immersed in ice-cold Krebs-bicarbonate solution (in mM: 118 NaCl, 4.7 KCl, 1.2, 2.5 CaCl2, MgSO4, 1.2 KH2PO4, 11 glucose, 25 NaHCO3). The urinary bladder was cut into longitudinal strips (5 mm length, 3-4 mm width) after mucosal layer was removed. Preparations were mounted in organ baths containing 10 ml of Krebs solution maintained at 37° C. and gassed with 95% O2/5% CO2. Accordingly, preparations were stretched with an initial tension of 2.0±1.0 g, and changes in isometric tension were measured by force-displacement transducer. The preparations were pre-contracted by changing organ-bath solution into high-K^+ (30 mM) Krebs solution (in mM: 92.7 NaCl, 30 KCl, 1.2, 2.5 CaCl2, MgSO4, 1.2 KH2PO4, 11 glucose, 25 NaHCO3).
After stable tension was obtained, compounds were added into organ baths cumulatively (10^−8M-10^−4M). The effects of compounds were expressed as a percentage of the maximum relaxation produced by 0.1 mM papaverine. 50% relaxation concentration (EC50) was calculated and EC50 value range (μM) of the compounds of the present invention was shown in the following Table 64 with a rank of A, B or C. These ranges are as mentioned below. 3≧C≧1≧B≧0.5≧A

Row | SMILES | 100% inhibition time range [1] | EC50 [2] [nM]
1 | COc1ccc(-c2nc(CC(=O)O)c(-c3ccsc3)o2)cc1C [Preparation Example 438] | C (A≧20>B≧10>C (minute)) | 1000 to 3000
2 | COc1ccc(-c2nc(-c3ccc(Cl)cc3)c(CC(=O)O)s2)cc1 [Preparation Example 575] | B (A≧20>B≧10>C (minute)) | ≤ 500
3 | CN(C)c1ncc(-c2nc(-c3ccc(Cl)s3)c(CC(=O)O)o2)cn1 [Preparation Example 512] | B (A≧20>B≧10>C (minute)) | 500 to 1000
4 | O=C(O)Cc1nc(-c2ccc(F)cc2)oc1-c1ccsc1 [Preparation Example 197] | C (A≧20>B≧10>C (minute)) | 1000 to 3000
5 | Clc1ccc(-c2ncc(-c3cccnc3)[nH]2)s1 [Preparation example 25] | B (A≧20>B≧10>C (minute)) | ≤ 500
6 | Cc1ccc(-c2nc(CC(=O)O)c(-c3ccccc3)o2)cc1 [Preparation Example 262] | C (A≧20>B≧10>C (minute)) | 1000 to 3000
7 | CSc1ccc(-c2nc(CC(=O)[O-])c(-c3ccsc3)o2)cn1.[Na+] [Preparation Example 365, 2-(6-methylthiopyridin-3-yl)-5-(3-thienyl)oxazol-4-yl acetic acid sodium salt] | B (A≧20>B≧10>C (minute)) | 1000 to 3000
8 | CCc1c(-c2cccnc2)nc(-c2ccc(F)cc2)n1CC [Preparation example 104] | A (A≧20>B≧10>C (minute)) | 500 to 1000
9 | CNC(=O)Cc1nc(-c2ccc(F)cc2)oc1-c1ccsc1 [Preparation Example 374] | C (A≧20>B≧10>C (minute)) | 1000 to 3000
10 | O=C(O)Cc1nc(-c2ccc(F)cc2)oc1-c1ccc(Br)s1 [Preparation Example 256] | C (A≧20>B≧10>C (minute)) | ≤ 500
11 | COc1ccc(-c2nc(CC(=O)O)c(-c3cccs3)o2)cc1 [Preparation Example 155] | B (A≧20>B≧10>C (minute)) | 1000 to 3000
12 | O=C(O)Cc1nc(-c2cc3ccccc3s2)oc1-c1ccc(Cl)cc1 [Preparation Example 454] | A (A≧20>B≧10>C (minute)) | 1000 to 3000
13 | CCCc1nc(-c2ccc(F)cc2)[nH]c1-c1ccc(N(C)C)cc1 [Preparation example 90] | B (A≧20>B≧10>C (minute)) | 1000 to 3000
14 | O=C(O)/C=C/c1nc(-c2ccc(F)cc2)oc1-c1ccc(Cl)s1 [Preparation Example 626] | C (A≧20>B≧10>C (minute)) | 1000 to 3000
15 | CCCc1nc(-c2csc(Cl)c2)[nH]c1-c1ccccc1 [Preparation example 34] | A (A≧20>B≧10>C (minute)) | 1000 to 3000
16 | COc1ccc(-c2nc(CC(=O)O)c(-c3ccc(Cl)s3)s2)cc1 [Preparation Example 609] | B (A≧20>B≧10>C (minute)) | 500 to 1000
17 | CN(C)c1ccc(-c2nc(-c3ccc(Cl)cc3)c(CC(=O)O)s2)cn1 [Preparation Example 576] | A (A≧20>B≧10>C (minute)) | 500 to 1000
18 | O=C(O)Cc1nc(-c2ccc3c(c2)OCCO3)oc1-c1ccc(Cl)s1 [Preparation Example 283] | C (A≧20>B≧10>C (minute)) | ≤ 500
19 | O=C(O)Cc1nc(-c2ccccc2)oc1-c1ccc(Cl)s1 [Preparation Example 279] | C (A≧20>B≧10>C (minute)) | ≤ 500
20 | O=C(O)Cc1nc(-c2cc3ccccc3s2)oc1-c1cccs1 [Preparation Example 267] | C (A≧20>B≧10>C (minute)) | ≤ 500

Row | SMILES | 100% inhibition time range [1] | EC50 [2] [nM]
21 | CSCc1nc(-c2ccc(C#N)cc2)[nH]c1-c1ccccc1 [Preparation example 132] | B (A≧20>B≧10>C (minute)) | 500 to 1000
22 | CCN(C)c1ncc(-c2nc(CC(=O)O)c(-c3ccc(Cl)s3)o2)cn1 [Preparation Example 363] | C (A≧20>B≧10>C (minute)) | 1000 to 3000
23 | O=C(O)Cc1nc(-c2ccc(F)cc2)oc1-c1csc(Cl)c1 [Preparation Example 286] | C (A≧20>B≧10>C (minute)) | ≤ 500
24 | CCc1nc(-c2ccc(F)cc2)[nH]c1-c1ccsc1 [Preparation Example 171] | B (A≧20>B≧10>C (minute)) | 1000 to 3000
25 | Cc1cccc(-c2nc(CC(=O)O)c(-c3cccs3)o2)c1 [Preparation Example 432] | C (A≧20>B≧10>C (minute)) | ≤ 500
26 | O=C(O)Cc1nc(-c2ccc3ncccc3c2)oc1-c1ccc(Cl)s1 [Preparation Example 284] | B (A≧20>B≧10>C (minute)) | 1000 to 3000
27 | Cc1nc(-c2ccc(F)cc2)[nH]c1-c1ccsc1 [Preparation Example 168] | B (A≧20>B≧10>C (minute)) | 500 to 1000
28 | O=C(O)Cc1nc(-c2ccc(F)cc2)oc1-c1csc2ccccc12 [Preparation Example 158] | C (A≧20>B≧10>C (minute)) | 1000 to 3000
29 | CSc1ncc(-c2nc(-c3ccc(Cl)s3)c(CC(=O)O)s2)cn1 [Preparation Example 572] | C (A≧20>B≧10>C (minute)) | 1000 to 3000
30 | O=C(O)Cc1nc(-c2ccc(Cl)cc2)oc1-c1ccc(Br)s1 [Preparation Example 245] | C (A≧20>B≧10>C (minute)) | 1000 to 3000
31 | Cc1ccc(-c2nc(CC(=O)O)c(-c3ccc(Cl)s3)o2)s1 [Preparation Example 458] | B (A≧20>B≧10>C (minute)) | ≤ 500
32 | O=C(O)Cc1nc(-c2cc3ccccc3s2)sc1-c1ccc(Cl)s1 [Preparation Example 610] | B (A≧20>B≧10>C (minute)) | ≤ 500
33 | CONC(=O)Cc1nc(-c2ccc(F)cc2)oc1-c1ccsc1 [Preparation Example 373, N-methoxy-[2-(4-fluorophenyl)-5-(3-thienyl)oxazol-4-yl]acetamide] | C (A≧20>B≧10>C (minute)) | 1000 to 3000
34 | O=C(O)Cc1nc(-c2cc3ccccc3s2)oc1-c1ccsc1 [Preparation Example 437] | B (A≧20>B≧10>C (minute)) | ≤ 500
35 | Cc1cc(-c2nc(CC(=O)O)c(-c3ccc(Cl)s3)o2)on1 [Preparation Example 278] | B (A≧20>B≧10>C (minute)) | 500 to 1000
36 | Cc1ccc(-c2nc(CC(=O)O)c(-c3cccs3)o2)s1 [Preparation Example 268] | C (A≧20>B≧10>C (minute)) | ≤ 500
37 | O=C(O)Cc1nc(-c2ccc(F)cc2)oc1-c1cccc(F)c1F [Preparation Example 252] | C (A≧20>B≧10>C (minute)) | 500 to 1000
38 | COc1ccc(-c2nc(CC(=O)O)c(-c3ccccc3F)o2)cc1 [Preparation Example 247] | C (A≧20>B≧10>C (minute)) | 1000 to 3000
39 | O=C(O)Cc1nc(-c2ccc3ccccc3n2)oc1-c1ccc(Cl)s1 [Preparation Example 434] | B (A≧20>B≧10>C (minute)) | 500 to 1000
40 | CCc1nc(-c2ccc(Cl)s2)[nH]c1-c1cccnc1 [Preparation example 14] | A (A≧20>B≧10>C (minute)) | 1000 to 3000

Reference: patent publication US7759373B2, “Large conductance calcium-activated K channel opener” (Mitsubishi Tanabe Pharma Corporation, priority 2001, dated 2010)
